# Legend:
# Assay type in all cases: physicochemical
# [1] = Approximate solubility of starting material in 20 solvents at RT
# Method: (peak) with one exotherm at 166.1° C. (peak). Approximate solubility of starting material was determined in 20 solvents at RT. Approximately 2 mg of sample was added into a 3-mL glass vial. Solvents in Table 2 were then added stepwise into the vials until the solids were dissolved visually or a total volume of 2 mL was reached. Solubility results summarized in Table 2 were used to guide the solvent selection in screening experiment design.
# [2] = Long-term stability test of Type A powder; conditions: 25±2° C./60±5% RH
# Method: (§1) Furthermore, a long-term stability test and an accelerated stability test of Type A (in the form of powder) are executed, and the results thereof are shown in Table 19 and Table 20, respectively. More specifically, for the long-term stability test, the packaging and storage condition: package in double PE bags with silica gel in an aluminum bag and in a paper drum; sample quantity: 0.6 g; temperature: 25±2° C.; % relative humidity: 60±5%; frequency of analysis: 0, 1, 2, 3, 6, 9, 12, 18, 24, 36, 48 and 60 months; duration: 60 months. As for the accelerated stability test, the packaging and storage condition: package in double PE bags with silica gel in an aluminum bag and in a paper drum; sample quantity: 0.6 g; temperature: 40±2° C.; % relative humidity: 75±5%; frequency of analysis: 0, 1, 2, 3 and 6 months; duration: 6 months.
# [3] = Accelerated stability test of Type A powder; conditions: 40±2° C./75±5% RH
# Method: as §1
# [4] = Heating experiment of Type A (XRPD)
smiles,measurement,setting,value
"O=C(/C=C/c1ccc2c(c1)CCN2S(=O)(=O)c1ccccc1)NO [Type A, (E)-N-hydroxy-3-(1-(phenylsulfonyl)indolin-5-yl) acrylamide]",solubility,"[1]; THE (as stored; likely THF), organic solvent or mixture, thermodynamic from solid, THE, RT",> 44000 µg/mL
same,solubility,"[1]; organic solvent or mixture, thermodynamic from solid, 1,4-Dioxane, RT",21000 to 42000 µg/mL
same,solubility,"[1]; organic solvent or mixture, thermodynamic from solid, 2-MeTHF, RT",2000 to 5000 µg/mL
same,solubility,"[1]; organic solvent or mixture, thermodynamic from solid, ACN, RT",9500 to 19000 µg/mL
same,solubility,"[1]; organic solvent or mixture, thermodynamic from solid, Acetone, RT",> 40000 µg/mL
same,solubility,"[1]; organic solvent or mixture, thermodynamic from solid, CHCl3, RT",< 1000 µg/mL
same,solubility,"[1]; organic solvent or mixture, thermodynamic from solid, DCM, RT",1000 to 2000 µg/mL
same,solubility,"[1]; organic solvent or mixture, thermodynamic from solid, DMAc, RT",> 40000 µg/mL
same,solubility,"[1]; organic solvent or mixture, thermodynamic from solid, DMSO, RT",> 40000 µg/mL
same,solubility,"[1]; organic solvent or mixture, thermodynamic from solid, EtOAc, RT",2000 to 5000 µg/mL
same,solubility,"[1]; organic solvent or mixture, thermodynamic from solid, EtOH, RT",5500 to 11000 µg/mL
same,solubility,"[1]; organic solvent or mixture, thermodynamic from solid, IPA, RT",2000 to 5000 µg/mL
same,solubility,"[1]; organic solvent or mixture, thermodynamic from solid, IPAc, RT",< 1100 µg/mL
same,solubility,"[1]; organic solvent or mixture, thermodynamic from solid, MIBK, RT",2000 to 5000 µg/mL
same,solubility,"[1]; organic solvent or mixture, thermodynamic from solid, MTBE, RT",< 1000 µg/mL
same,solubility,"[1]; organic solvent or mixture, thermodynamic from solid, MeOH, RT",20000 to 40000 µg/mL
same,solubility,"[1]; organic solvent or mixture, thermodynamic from solid, NMP, RT",> 40000 µg/mL
same,solubility,"[1]; organic solvent or mixture, thermodynamic from solid, Toluene, RT",< 1000 µg/mL
same,solubility,"[1]; organic solvent or mixture, thermodynamic from solid, n-Heptane, RT",< 1000 µg/mL
same,solubility,"[1]; water, thermodynamic from solid, H2O, RT",< 1000 µg/mL
same,Appearance,[2]; 0 months,Pale white powder
same,Assay (HPLC) (98.0%~102.0%) (anhydrous basis),[2]; 0 months,101.6%
same,Related substance (HPLC) ABT-301 dimer (NMT 0.5%),[2]; 0 months,0 a/a %
same,Related substance (HPLC) Individual unknown Impurity (NMT 0.4%),[2]; 0 months,0.03%
same,Related substance (HPLC) Total Impurities (NMT 1.0%),[2]; 0 months,0.1%
same,Water content (KF) (NMT 4.0%),[2]; 0 months,2.6%
same,Appearance,[2]; 1 month,Pale white powder
same,Assay (HPLC) (98.0%~102.0%) (anhydrous basis),[2]; 1 month,100.3%
same,Related substance (HPLC) ABT-301 dimer (NMT 0.5%),[2]; 1 month,0 a/a %
same,Related substance (HPLC) Individual unknown Impurity (NMT 0.4%),[2]; 1 month,0.05%
same,Related substance (HPLC) Total Impurities (NMT 1.0%),[2]; 1 month,0.1%
same,Water content (KF) (NMT 4.0%),[2]; 1 month,2.6%
same,Appearance,[2]; 2 months,Pale white powder
same,Assay (HPLC) (98.0%~102.0%) (anhydrous basis),[2]; 2 months,100.6%
same,Related substance (HPLC) ABT-301 dimer (NMT 0.5%),[2]; 2 months,0 a/a %
same,Related substance (HPLC) Individual unknown Impurity (NMT 0.4%),[2]; 2 months,0.05%
same,Related substance (HPLC) Total Impurities (NMT 1.0%),[2]; 2 months,0.1%
same,Water content (KF) (NMT 4.0%),[2]; 2 months,2.6%
same,Appearance,[2]; 3 months,Pale white powder
same,Assay (HPLC) (98.0%~102.0%) (anhydrous basis),[2]; 3 months,101.4%
same,Related substance (HPLC) ABT-301 dimer (NMT 0.5%),[2]; 3 months,0 a/a %
same,Related substance (HPLC) Individual unknown Impurity (NMT 0.4%),[2]; 3 months,0.07%
same,Related substance (HPLC) Total Impurities (NMT 1.0%),[2]; 3 months,0.1%
same,Water content (KF) (NMT 4.0%),[2]; 3 months,2.6%
same,Appearance,[2]; 6 months,Pale white powder
same,Assay (HPLC) (98.0%~102.0%) (anhydrous basis),[2]; 6 months,100.2%
same,Related substance (HPLC) ABT-301 dimer (NMT 0.5%),[2]; 6 months,0 a/a %
same,Related substance (HPLC) Individual unknown Impurity (NMT 0.4%),[2]; 6 months,0.05%
same,Related substance (HPLC) Total Impurities (NMT 1.0%),[2]; 6 months,0.1%
same,Water content (KF) (NMT 4.0%),[2]; 6 months,2.6%
same,Appearance,[2]; 9 months,Pale white powder
same,Assay (HPLC) (98.0%~102.0%) (anhydrous basis),[2]; 9 months,100.6%
same,Related substance (HPLC) ABT-301 dimer (NMT 0.5%),[2]; 9 months,0 a/a %
same,Related substance (HPLC) Individual unknown Impurity (NMT 0.4%),[2]; 9 months,0.06%
same,Related substance (HPLC) Total Impurities (NMT 1.0%),[2]; 9 months,0.1%
same,Water content (KF) (NMT 4.0%),[2]; 9 months,2.9%
same,Appearance,[2]; 12 months,Pale white powder
same,Assay (HPLC) (98.0%~102.0%) (anhydrous basis),[2]; 12 months,100.4%
same,Related substance (HPLC) ABT-301 dimer (NMT 0.5%),[2]; 12 months,0 a/a %
same,Related substance (HPLC) Individual unknown Impurity (NMT 0.4%),[2]; 12 months,0.09%
same,Related substance (HPLC) Total Impurities (NMT 1.0%),[2]; 12 months,0.2%
same,Water content (KF) (NMT 4.0%),[2]; 12 months,2.6%
same,Appearance,[2]; 18 months,Pale white powder
same,Assay (HPLC) (98.0%~102.0%) (anhydrous basis),[2]; 18 months,100.0%
same,Related substance (HPLC) ABT-301 dimer (NMT 0.5%),[2]; 18 months,0 a/a %
same,Related substance (HPLC) Individual unknown Impurity (NMT 0.4%),[2]; 18 months,0.07%
same,Related substance (HPLC) Total Impurities (NMT 1.0%),[2]; 18 months,0.1%
same,Water content (KF) (NMT 4.0%),[2]; 18 months,2.8%
same,Appearance,[2]; 24 months,Pale white powder
same,Assay (HPLC) (98.0%~102.0%) (anhydrous basis),[2]; 24 months,99.8%
same,Related substance (HPLC) ABT-301 dimer (NMT 0.5%),[2]; 24 months,0 a/a %
same,Related substance (HPLC) Individual unknown Impurity (NMT 0.4%),[2]; 24 months,0.03%
same,Related substance (HPLC) Total Impurities (NMT 1.0%),[2]; 24 months,0.1%
same,Water content (KF) (NMT 4.0%),[2]; 24 months,2.7%
same,Appearance,[2]; 36 months,Pale wlite powder
same,Assay (HPLC) (98.0%~102.0%) (anhydrous basis),[2]; 36 months,100.1%
same,Related substance (HPLC) ABT-301 dimer (NMT 0.5%),[2]; 36 months,0 a/a %
same,Related substance (HPLC) Individual unknown Impurity (NMT 0.4%),[2]; 36 months,0.08%
same,Related substance (HPLC) Total Impurities (NMT 1.0%),[2]; 36 months,0.1%
same,Water content (KF) (NMT 4.0%),[2]; 36 months,2.6%
same,Appearance,[2]; 48 months,Pale white powder
same,Assay (HPLC) (98.0%~102.0%) (anhydrous basis),[2]; 48 months,100.4%
same,Related substance (HPLC) ABT-301 dimer (NMT 0.5%),[2]; 48 months,0 a/a %
same,Related substance (HPLC) Individual unknown Impurity (NMT 0.4%),[2]; 48 months,0.08%
same,Related substance (HPLC) Total Impurities (NMT 1.0%),[2]; 48 months,0.1%
same,Water content (KF) (NMT 4.0%),[2]; 48 months,2.6%
same,Appearance,[2]; 60 months,Pale white powder
same,Assay (HPLC) (98.0%~102.0%) (anhydrous basis),[2]; 60 months,100.5%
same,Related substance (HPLC) Individual unknown Impurity (NMT 0.4%),[2]; 60 months,0.08%
same,Related substance (HPLC) Total Impurities (NMT 1.0%),[2]; 60 months,0.1%
same,Water content (KF) (NMT 4.0%),[2]; 60 months,2.6%
same,Appearance,[3]; 0 months,Pale white powder
same,Assay (HPLC) (98.0%~102.0%) (anhydrous basis),[3]; 0 months,101.6%
same,Related substance (HPLC) ABT-301 dimer (NMT 0.5%),[3]; 0 months,0.03 a/a %
same,Related substance (HPLC) Individual unknown Impurity (NMT 0.4%),[3]; 0 months,0.03%
same,Related substance (HPLC) Total Impurities (NMT 1.0%),[3]; 0 months,0.08%
same,Water content (KF) (NMT 4.0%),[3]; 0 months,2.6%
same,Appearance,[3]; 1 month,Pale white powder
same,Assay (HPLC) (98.0%~102.0%) (anhydrous basis),[3]; 1 month,100.2%
same,Related substance (HPLC) ABT-301 dimer (NMT 0.5%),[3]; 1 month,0.03 a/a %
same,Related substance (HPLC) Individual unknown Impurity (NMT 0.4%),[3]; 1 month,0.05%
same,Related substance (HPLC) Total Impurities (NMT 1.0%),[3]; 1 month,0.12%
same,Water content (KF) (NMT 4.0%),[3]; 1 month,2.6%
same,Appearance,[3]; 2 months,Pale white powder
same,Assay (HPLC) (98.0%~102.0%) (anhydrous basis),[3]; 2 months,101.2%
same,Related substance (HPLC) ABT-301 dimer (NMT 0.5%),[3]; 2 months,0.03 a/a %
same,Related substance (HPLC) Individual unknown Impurity (NMT 0.4%),[3]; 2 months,0.03%
same,Related substance (HPLC) Total Impurities (NMT 1.0%),[3]; 2 months,0.09%
same,Water content (KF) (NMT 4.0%),[3]; 2 months,2.6%
same,Appearance,[3]; 3 months,Pale white powder
same,Assay (HPLC) (98.0%~102.0%) (anhydrous basis),[3]; 3 months,101.8%
same,Related substance (HPLC) ABT-301 dimer (NMT 0.5%),[3]; 3 months,0.03 a/a %
same,Related substance (HPLC) Individual unknown Impurity (NMT 0.4%),[3]; 3 months,0.06%
same,Related substance (HPLC) Total Impurities (NMT 1.0%),[3]; 3 months,0.11%
same,Water content (KF) (NMT 4.0%),[3]; 3 months,2.6%
same,Appearance,[3]; 6 months,Pale white powder
same,Assay (HPLC) (98.0%~102.0%) (anhydrous basis),[3]; 6 months,99.8%
same,Related substance (HPLC) ABT-301 dimer (NMT 0.5%),[3]; 6 months,0.03 a/a %
same,Related substance (HPLC) Individual unknown Impurity (NMT 0.4%),[3]; 6 months,0.06%
same,Related substance (HPLC) Total Impurities (NMT 1.0%),[3]; 6 months,0.13%
same,Water content (KF) (NMT 4.0%),[3]; 6 months,2.6%
same,form after heating (XRPD),[4]; heated to 100° C. and cooled to RT,no form change
same,form after heating (XRPD),[4]; heated to 122° C./130° C. and cooled to RT,"converted to a new form, named as Type B"

# Reference: patent publication US12252469B2, “Crystalline forms of (E)-N-hydroxy-3-(1-(phenylsulfonyl)indolin-5-yl)acrylamide” (ANBOGEN THERAPEUTICS INC., priority 2023, dated 2025)
